pIC50: −log10 of the molar value.
Target: Human DGAT2 (Homo sapiens (Human), UniProt Q96PD7)
Assay: DGAT2 Enzymatic Activity Assay (triolein formation, LC/MS/MS)
Assay type: biochemical
Details: hDGAT2 Sf-9 membrane prep; 25 μM diolein, 10 μM oleoyl-CoA; room temperature
Summary of the method: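 Triolein product, measured by LC/MS/MS as a ratio to internal standard, gave % inhibition and 4-parameter IC50. Reaction: 25 μM diolein, 10 μM oleoyl-CoA, 10 ng/μL hDGAT2 Sf-9 membrane, 100 mM Tris.Cl pH 7.0, 20 mM MgCl2, 5% ethanol, room temperature.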

Human DGAT2, sequence (Q96PD7 whole entry): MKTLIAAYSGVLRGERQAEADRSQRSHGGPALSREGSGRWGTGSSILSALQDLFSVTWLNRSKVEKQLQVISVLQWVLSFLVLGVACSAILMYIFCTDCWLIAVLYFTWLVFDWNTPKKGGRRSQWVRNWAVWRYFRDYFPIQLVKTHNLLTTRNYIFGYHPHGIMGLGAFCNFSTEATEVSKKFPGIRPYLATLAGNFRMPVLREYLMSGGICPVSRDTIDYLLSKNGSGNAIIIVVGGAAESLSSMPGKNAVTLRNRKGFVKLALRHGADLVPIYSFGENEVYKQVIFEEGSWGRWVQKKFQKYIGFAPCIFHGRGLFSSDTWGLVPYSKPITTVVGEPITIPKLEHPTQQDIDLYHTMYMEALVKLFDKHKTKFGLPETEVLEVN

Row | Compound | pIC50
1 | NC(=O)c1ccc(Cl)c(-c2nn(-c3ccc(F)cc3)c3cc(C(=O)NC4CCS(=O)(=O)C4)ccc23)c1 (single isomer, unassigned) [Example 122-A, 3-(5-carbamoyl-2-chlorophenyl)-N-(1,1-dioxidotetrahydrothiophen-3-yl)-1-(4-fluorophenyl)-1H-indazole-6-carboxamide] | 7.02
2 | CC1(NC(=O)c2ccc3c(-c4ccccc4Cl)nn(-c4ncc(F)cn4)c3c2)CCS(=O)(=O)C1 (racemic) [Example 181, 3-(2-chlorophenyl)-1-(5-fluoropyrimidin-2-yl)-N-(3-methyl-1,1-dioxidotetradioxidotetradioxido-tetradioxidotetra-hydrothiophen-3-yl)-1H-indazole-6-carboxamide] | 6.41
3 | O=C(NC1(CO)CCCC1)c1ccc2c(-c3ccccc3Cl)nn(-c3ccc(F)cc3)c2c1 [Example 43, 3-(2-chlorophenyl)-1-(4-fluorophenyl)-N-[1-(hydroxymethyl)cyclopentyl]-1H-indazole-6-carboxamide] | 7.96
4 | C[C@H](CS(N)(=O)=O)NC(=O)c1ccc2c(-c3ccccc3Cl)nn(-c3ccc(F)cc3)c2c1 [Example 51, 3-(2-chlorophenyl)-1-(4-fluorophenyl)-N-[(1R)-1-methyl-2-sulfamoylethyl]-1H-indazole-6-carboxamide] | 6.74
5 | O=C(NC(CO)C1CC1)c1ccc2c(-c3ccccc3Cl)nn(-c3ccc(F)cc3)c2c1 (racemic) [Example 78, 3-(2-chlorophenyl)-N-(1-cyclopropyl-2-hydroxyethyl)-1 (4-fluorophenyl)-1H-indazole-6-carboxamide] | 6.45
6 | O=C(NCC1(O)CCCCC1)c1ccc2c(-c3ccccc3Cl)nn(-c3ccc(F)cc3)c2c1 [Example 44, 3-(2-chlorophenyl)-1-(4-fluorophenyl)-N-[(1-hydroxycyclohexyl)methyl]-1H-indazole-6-carboxamide] | 6.75
7 | O=C(N[C@H]1CCC[C@H]1O)c1ccc2c(-c3ccccc3Cl)nn(-c3ccc(F)cc3)c2c1 [Example 96, 3-(2-chlorophenyl)-1-(4-fluorophenyl)-N-[(1S,2R)-2-hydroxycyclopentyl]-1H-indazole-6-carboxamide] | 7.37
8 | COc1cc(-c2nn(-c3ccc(F)cc3)c3cc(C(=O)NC4(C)CCS(=O)(=O)C4)ccc23)c(Cl)cn1 (single isomer, unassigned) [Example 141-A, 3-(5-chloro-2-methoxypyridin-4-yl)-1-(4-fluorophenyl)-N-(3-methyl-1,1-dioxidotetrahydrothiophen-3-yl)-1H-indazole-6-carboxamide] | 8.32
9 | O=C(NC(CO)(CO)CO)c1ccc2c(-c3ccccc3Cl)nn(-c3ccc(F)cc3)c2c1 [Example 85, 3-(2-chlorophenyl)-1-(4-fluorophenyl)-N-[2-hydroxy-1,1-bis(hydroxymethyl)ethyl]-1H-indazole-6-carboxamide] | 6.36
10 | CC1(NC(=O)c2ccc3c(-c4cccc(OC(F)F)c4)nn(-c4ccc(F)cn4)c3c2)CCS(=O)(=O)C1 (single isomer, unassigned) [Example 128-A, 3-[3-(difluoromethoxy)phenyl]-1-(5-fluoropyridin-2-yl)-N-(3-methyl-1,1-dioxidotetrahydrothiophen-3-yl)-1H-indazole-6-carboxamide] | 8.48
11 | O=C(NC1CCS(=O)(=O)C1)c1ccc2c(-c3ccccc3Cl)nn(-c3ccc(F)cn3)c2c1 (single isomer, unassigned) [Example 176-A, 3-(2-chlorophenyl)-N-(1,1-dioxidotetrahydrothiophen-3-yl)-1-(5-fluoropyridin-2-yl)-1H-indazole-6-carboxamide] | 6.60
12 | CC(c1cc(-c2ccccc2)[nH]n1)N(C)C(=O)c1ccc2c(-c3ccccc3Cl)nn(-c3ccc(F)cc3)c2c1 (racemic) [Example 27, 3-(2-chlorophenyl)-1-(4-fluorophenyl)-N-methyl-N-[1-(5-phenyl-1H-pyrazol-3-yl)ethyl]-1H-indazole-6-carboxamide] | 6.52
13 | CCOC(=O)C1(NC(=O)c2ccc3c(-c4ccccc4Cl)nn(-c4ccc(F)cc4)c3c2)CC1 [Example 62, ethyl 1-({[3-(2-chlorophenyl)-1-(4-fluorophenyl)-1H-indazol-6-yl]carbonyl}amino)cyclopropane carboxylate] | 6.24
14 | CSCC[C@@H](CO)NC(=O)c1ccc2c(-c3ccccc3Cl)nn(-c3ccc(F)cc3)c2c1 [Example 93, 3-(2-chlorophenyl)-1-(4-fluorophenyl)-N-[(1S)-1-(hydroxymethyl)-3-(methylsulfanyl)propyl]-1H-indazole-6-carboxamide] | 6.30
15 | O=C(NCc1cncnc1)c1ccc2c(-c3ccccc3Cl)nn(-c3ccc(F)cc3)c2c1 [Example 38, 3-(2-chlorophenyl)-1-(4-fluorophenyl)-N-(pyrimidin-5-ylmethyl)-1H-indazole-6-carboxamide] | 6.43
16 | Cc1noc([C@H](NC(=O)c2ccc3c(-c4ccccc4Cl)nn(-c4ccc(F)cc4)c3c2)[C@H](C)O)n1 (stereo in doubt) [Example 48, 3-(2-chlorophenyl)-1-(4-fluorophenyl)-N-[(1R,2S)-2-hydroxy-1-(3-methyl-1,2,4-oxadiazol-5-yl)propyl]-1H-indazole-6-carboxamide] | 7.02

Row | Compound | pIC50
17 | O=C1CC(NC(=O)c2ccc3c(-c4ccccc4Cl)nn(-c4ccc(F)cc4)c3c2)C(=O)N1 (racemic) [Example 57, 3-(2-chlorophenyl)-N-(2,5-dioxopyrrolidin-3-yl)-1-(4-fluorophenyl)-1H-indazole-6-carboxamide] | 6.17
18 | O=C(N[C@H]1CCC[C@@H]1O)c1ccc2c(-c3ccccc3Cl)nn(-c3ccc(F)cc3)c2c1 [Example 97, 3-(2-chlorophenyl)-1-(4-fluorophenyl)-N-[(1S,2S)-2-hydroxycyclopentyl]-1H-indazole-6-carboxamide] | 6.81
19 | CC(C)(C)OC(=O)CCNC(=O)c1ccc2c(-c3ccccc3Cl)nn(-c3ccc(F)cc3)c2c1 [Example 19, tert-butyl N-{[3-(2-chlorophenyl)-1-(4-fluorophenyl)-1H-indazol-6-yl]carbonyl}-beta-alaninate] | 6.23
20 | O=C(N[C@@H]1CCC[C@@H]1O)c1ccc2c(-c3ccccc3Cl)nn(-c3ccc(F)cc3)c2c1 [Example 115, 3-(2-chlorophenyl)-1-(4-fluorophenyl)-N-[(1R,2S)-2-hydroxycyclopentyl]-1H-indazole-6-carboxamide] | 6.24
21 | COC(=O)c1ccc(-n2nc(-c3ccccc3Cl)c3ccc(C(=O)NC4(C)CCS(=O)(=O)C4)cc32)cc1 (racemic) [Example 187, methyl 4-{3-(2-chlorophenyl)-6-[(3-methyl-1,1-dioxidotetrahydrothiophen-3-yl)carbamoyl]-1H-indazol-1-yl}benzoate] | 6.19
22 | COc1cccc(-n2nc(-c3ccccc3Cl)c3ccc(C(=O)NC4(C)CCS(=O)(=O)C4)cc32)n1 (racemic) [Example 186, 3-(2-chlorophenyl)-1-(6-methoxypyridin-2-yl)-N-(3-methyl-1,1-dioxidotetrahydrothiophen-3-yl)-1H-indazole-6-carboxamide] | 6.49
23 | CCS(=O)(=O)CCNC(=O)c1ccc2c(-c3ccccc3Cl)nn(-c3ccc(F)cc3)c2c1 [Example 26, 3-(2-chlorophenyl)-N-[2-(ethylsulfonyl)ethyl]-1-(4-ftuorophenyl)-1H-indazole-6-carboxamide] | 6.35
24 | O=C(NCc1cnsn1)c1ccc2c(-c3ccccc3Cl)nn(-c3ccc(F)cc3)c2c1 [Example 40, 3-(2-chlorophenyl)-1-(4-fluorophenyl)-N-(1,2,5-thiadiazol-3-ylmethyl)-1H-indazole-6-carboxamide] | 6.35
25 | CC1(NC(=O)c2ccc3c(-c4ccccc4Cl)nn(-c4nnc(C(C)(C)C)s4)c3c2)CCS(=O)(=O)C1 (racemic) [Example 183, 1-(5-tert-butyl-1,3,4-thiadiazol-2-yl)-3-(2-chlorophenyl)-N-(3-methyl-1,1-dioxidotetrahydrothiophen-3-yl)-1H-indazole-6-carboxamide] | 6.34
26 | O=C(NCc1cccnc1)c1ccc2c(-c3ccccc3Cl)nn(-c3ccc(F)cc3)c2c1 [Example 31, 3-(2-chlorophenyl)-1-(4-fluorophenyl)-N-(pyridin-3-ylmethyl)-1H-indazole-6-carboxamide] | 6.49
27 | CC(C)[C@@H](CO)NC(=O)c1ccc2c(-c3cccc(C4CC4)c3)nn(-c3ccc(F)cn3)c2c1 [Example 124, 3-(3-cyclopropylphenyl)-1-(5-fluoropyridin-2-yl)-N-[(1S)-1-(hydroxymethyl)-2-methylpropyl]-1H-indazole-6-carboxamide] | 8.36
28 | O=C(NC1CC[S+]([O-])C1)c1ccc2c(-c3ccccc3Cl)nn(-c3ccc(F)cc3)c2c1 (single isomer, unassigned) [Example 58-B, 3-(2-chlorophenyl)-1-(4-fluorophenyl)-N-(1-oxidotetrahydrothiophen-3-yl)-1H-indazole-6-carboxamide] | 6.22
29 | O=C(NC1(CO)CCS(=O)(=O)C1)c1ccc2c(-c3ccccc3Cl)nn(-c3ccc(F)cc3)c2c1 (racemic) [Example 92, 3-(2-chlorophenyl)-1-(4-fluorophenyl)-N-[3-(hydroxymethyl)-1,1-dioxidotetrahydrothiophen-3-yl]-1H-indazole-6-carboxamide] | 6.43
30 | CC1(NC(=O)c2ccc3c(-c4cc(Cl)cc(Cl)c4)nn(-c4ccc(F)cc4)c3c2)CCS(=O)(=O)C1 (single isomer, unassigned) [Example 157-A, 3-(3,5-dichlorophenyl)-1-(4-fluorophenyl)-N-(3-methyl-1,1-dioxidotetrahydrothiophen-3-yl)-1H-indazole-6-carboxamide] | 7.21
31 | CC1(NC(=O)c2ccc3c(-c4cccnc4F)nn(-c4ccc(F)cc4)c3c2)CCS(=O)(=O)C1 (single isomer, unassigned) [Example 154-A, 1-(4-fluorophenyl)-3-(2-fluoropyridin-3-yl)-N-(3-methyl-1,1-dioxidotetrahydrothiophen-3-yl)-1H-indazole-6-carboxamide] | 7.77
